Among the test systems are NCI-H226 lung; UACC-257 melanoma; HL-60(TB) leukemia; SF-539 CNS; OVCAR-8 ovarian; U251 CNS; NCI-H460 lung; HOP-92 NSCLC; TK-10 renal.
Assay in all cases: NCI tumour cell line growth inhibition, 48 h

Each structure is given as a SMILES string.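 A five-concentration, 48-hour dose response in 96-well plates underlies each endpoint, interpolated linearly between surrounding concentrations. Here, GI50 denotes the concentration required for 50% inhibition of growth. Definition used: TGI = concentration required for complete inhibition of growth.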

Turning to `CC(=O)[CH-]C(=O)c1ccccc1.CC(=O)[CH-]C(=O)c1ccccc1.[O-]Cc1cccs1.[O-]Cc1cccs1.[Ti+4]`, the GI50 in the assay with NCI-H226 lung was 82.3 µM; with UACC-257 melanoma it was more than 100 µM; with HL-60(TB) leukemia it was 4.26 µM; in the assay with SF-539 CNS it was 71.2 µM; with OVCAR-8 ovarian it was more than 100 µM; in the assay on U251 CNS, more than 100 µM. Also, the GI50 in the assay on NCI-H460 lung was 29.4 µM. Moreover, the TGI with NCI-H226 lung, with UACC-257 melanoma, with HL-60(TB) leukemia, in the assay with SF-539 CNS, in the assay with OVCAR-8 ovarian and with U251 CNS was more than 100 µM in each case. This molecule also returned a TGI in the assay on NCI-H460 lung of more than 100 µM.

With `Clc1ccc(C2=NN(c3ccccc3)C3c4cc(Br)ccc4OCC23)cc1` (centres undefined), the TGI with HOP-92 NSCLC, in the assay with UACC-257 melanoma, with HL-60(TB) leukemia, in the assay with SF-539 CNS, in the assay on OVCAR-8 ovarian and in the assay on TK-10 renal was more than 100 µM each time. Further, the TGI in the assay on U251 CNS and in the assay with NCI-H460 lung was more than 100 µM in each case.

As for `Cn1cc(-c2nonc2-c2cn(C)c3ccc(Br)cc23)c2ccccc21`, the GI50 in the assay on HOP-92 NSCLC is 5.16 µM; in the assay with NCI-H226 lung it was 4.61 µM; with HL-60(TB) leukemia, 2.95 µM; in the assay with SF-539 CNS, 2.19 µM; with OVCAR-8 ovarian, 5.14 µM; in the assay with TK-10 renal, 5.33 µM. In addition, the GI50 in the assay with U251 CNS was 3.93 µM; in the assay on NCI-H460 lung it was 3.31 µM. The TGI is more than 100 µM in the assay with HOP-92 NSCLC; more than 100 µM in the assay on NCI-H226 lung; more than 100 µM with HL-60(TB) leukemia; 6.13 µM in the assay on SF-539 CNS; more than 100 µM in the assay with OVCAR-8 ovarian; more than 100 µM in the assay with TK-10 renal. Moreover, the TGI in the assay on U251 CNS and with NCI-H460 lung was more than 100 µM throughout.

Consider `Fc1cccc(C=NC23CC4CC(CC(C4)C2)C3)c1`, for which the TGI with HOP-92 NSCLC, with NCI-H226 lung, with UACC-257 melanoma, with HL-60(TB) leukemia, with SF-539 CNS and with OVCAR-8 ovarian was more than 100 µM throughout. Moreover, the TGI with TK-10 renal, in the assay on U251 CNS and in the assay on NCI-H460 lung was more than 100 µM in each case.

With `CCOc1ccc(NC(=O)/C(=C/c2ccccc2)C(C)=O)cc1`, the TGI in the assay on HOP-92 NSCLC turned out to be 28 µM; in the assay on NCI-H226 lung it was 32.4 µM; in the assay on UACC-257 melanoma, 27.9 µM; in the assay on HL-60(TB) leukemia, 9.66 µM; in the assay on SF-539 CNS, 23.3 µM; in the assay with OVCAR-8 ovarian, 43.1 µM. Moreover, the TGI came out at 32.9 µM in the assay on TK-10 renal, 28.5 µM with U251 CNS and 30.9 µM with NCI-H460 lung.

In the case of `COc1ccc(Br)c(CCCCC(=O)O)c1`, the TGI was 76.3 µM with HOP-92 NSCLC; more than 100 µM in the assay with UACC-257 melanoma; more than 100 µM in the assay on HL-60(TB) leukemia; more than 100 µM in the assay with SF-539 CNS; more than 100 µM in the assay with OVCAR-8 ovarian; more than 100 µM in the assay with TK-10 renal. The TGI in the assay on U251 CNS and in the assay with NCI-H460 lung was more than 100 µM throughout.

As for `COc1ccc(C(=O)Nc2ccccc2)cc1[N+](=O)[O-]`, the TGI in the assay with NCI-H226 lung, in the assay with UACC-257 melanoma, in the assay on SF-539 CNS, in the assay on OVCAR-8 ovarian, with TK-10 renal and in the assay on U251 CNS was more than 100 µM in each case. In the assay on NCI-H460 lung, this molecule yielded a TGI of more than 100 µM.

For `COC(=O)[C@@]12C3=NO[C@]1(C(=O)OC)C(O[Si](C)(C)C(C)(C)C)C1OC(C)(C)OC1[C@@H]2[C@@H](OCc1ccccc1)CC3` (some centres undefined), the TGI in the assay on HOP-92 NSCLC is 17.3 µM; in the assay on NCI-H226 lung it was more than 100 µM; in the assay on HL-60(TB) leukemia, 13.9 µM; with SF-539 CNS, more than 100 µM; with OVCAR-8 ovarian, more than 100 µM; in the assay with TK-10 renal, more than 100 µM. The TGI in the assay on U251 CNS is more than 100 µM.

In the case of `Cc1ccc(C)c(NC(=O)CCC(=O)CC(=O)C(C)(C)C)c1`, the TGI in the assay with HOP-92 NSCLC, in the assay with UACC-257 melanoma, with SF-539 CNS, in the assay on OVCAR-8 ovarian, with TK-10 renal and in the assay with U251 CNS was more than 100 µM in each case. Moreover, the TGI in the assay with NCI-H460 lung was more than 100 µM.

Regarding `CCCCCNC(=O)C1C(=O)N(CCCCC)C(=O)/C1=N\N` (centres undefined), the TGI was 95.4 µM in the assay on HOP-92 NSCLC; more than 100 µM with UACC-257 melanoma; more than 100 µM in the assay with HL-60(TB) leukemia; more than 100 µM in the assay on SF-539 CNS; more than 100 µM in the assay with OVCAR-8 ovarian; more than 100 µM in the assay on TK-10 renal. Moreover, the TGI in the assay on U251 CNS and with NCI-H460 lung was more than 100 µM in each case.

`OCCC#Cc1ccccc1C#Cc1ccccc1`: the GI50 in the assay on HOP-92 NSCLC was 3.48 µM; in the assay on NCI-H226 lung, 15.2 µM; in the assay on UACC-257 melanoma it was 22.4 µM; in the assay with SF-539 CNS it was 12.7 µM; in the assay on OVCAR-8 ovarian it was 30.4 µM; with TK-10 renal it was 11.3 µM. Also, the GI50 with U251 CNS was 35 µM; with NCI-H460 lung, 21.5 µM. Besides, the TGI was determined as 16.7 µM in the assay on HOP-92 NSCLC; 33.2 µM in the assay with NCI-H226 lung; 45.9 µM in the assay on UACC-257 melanoma; 27 µM in the assay with SF-539 CNS; 66.9 µM in the assay on OVCAR-8 ovarian; 23.4 µM in the assay on TK-10 renal. Also, the TGI with U251 CNS is more than 100 µM; in the assay with NCI-H460 lung, 50.7 µM.
